Measured values reported in patent US12465594B2 (Brown University, priority 2018, dated 2025).
Entries after “also recorded” stand apart in the source; their conditions may differ.

Assays:
[1] = biological target: T1, CRFBP-CRF2 complex (Homo sapiens, UniProt P24387+Q13324); assay: CRFBP-CRF2 Ca2+ assay (FDSS7000; dose-response, Schild analysis); type: cell-based; conditions: for CRF maximal response with increasing concentrations of compound / Mechanism of antagonism relative to CRF (Schild analysis): 1.11, 3.33, 10 μM compound; for Antagonism of the CRFBP-CRF2 response: dose-response in presence of EC80 CRF
T1 construct: FLAG (N); HA (N); expressed in transfected cells
T1 sequence (P24387+Q13324 with tags, fused parts or gaps): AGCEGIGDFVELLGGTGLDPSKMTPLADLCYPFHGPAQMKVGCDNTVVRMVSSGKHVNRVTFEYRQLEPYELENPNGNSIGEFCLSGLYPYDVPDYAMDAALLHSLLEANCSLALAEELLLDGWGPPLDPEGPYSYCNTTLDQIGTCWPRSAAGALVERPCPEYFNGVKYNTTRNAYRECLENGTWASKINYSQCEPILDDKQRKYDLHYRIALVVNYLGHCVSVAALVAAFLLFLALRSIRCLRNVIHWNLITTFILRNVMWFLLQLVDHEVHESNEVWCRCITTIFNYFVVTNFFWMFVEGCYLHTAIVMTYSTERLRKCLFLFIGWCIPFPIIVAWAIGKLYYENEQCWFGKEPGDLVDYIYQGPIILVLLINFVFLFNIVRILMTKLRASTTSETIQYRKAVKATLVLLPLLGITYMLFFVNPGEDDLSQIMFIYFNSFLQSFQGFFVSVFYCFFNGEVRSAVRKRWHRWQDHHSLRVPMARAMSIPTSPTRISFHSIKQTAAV
Protocol: CRFBP-CRF2 HEK293 cells (1,000 cells/6 μL per well) were plated in 1536-well black walled clear-bottom Poly-D-Lysine coated plates (Corning) in Assay Media (Dulbecco's Modified Eagle Medium (DMEM) (1×), phenol red free, 1% Defined Fetal Bovine Serum (FBS) (Hyclone), 1×Penicillin/Streptomycin (P/S), and 1×L-Glutamine) using a Multidrop Combi (Thermo). Cell plates were spun at 500 rpm for 1 minute in a centrifuge, covered with Kalypsys lids, and incubated overnight at 37° C. in the presence of 5% CO2. The following day, 2 μL per well of FLIPR Calcium 4 Dye (Molecular Devices), prepared in Assay Buffer (1×Hanks' balanced salt solution, 20 mM HEPES, 0.1% Bovine Serum Albumin [Sigma], and 2.5 mM probenecid [Sigma], pH 7.4) was added to each well of the assay plate at 0.5×according to the Manufacturer's Instructions using the Multidrop Combi (Thermo) dispenser and the cells were incubated in dye for 1 hour 37° C. in the presence of 5% CO2. Reagents are from Invitrogen unless otherwise stated.
Calcium flux was measured using a Functional Drug Screening System 7000 (FDSS7000; Hamamatsu, Tokyo, Japan). Baseline readings were taken (9 images at 1 Hz; excitation, 470±20 nm; emission, 540±30 nm), and then test compounds (approximately 53 nL) were added at the 10 second time-point using the FDSS's integrated 1536 well pin-tool from source library plates (Corning) containing 2 mM test compound stocks in 100% DMSO. […] Agonist “Hits” were selected by comparing the amplitude of the responses at the time of test compound addition to the CRF maximal response on each plate.
For confirmation screening, the CRFBP-CRF2 Ca^2+ assay was performed in the identical as the primary screen with the following exceptions. For each test compound, eight assay plates were prepared, each of which received a different concentration of test compound by pin-tool in the FDSS7000 Ca^2+ assay. For the agonist confirmation screening, compounds were tested at 53.0 μM, 26.5 μM, 13.3 μM, 6.63 μM, 3.31 μM, 1.66 μM, 0.828 μM, and 0.414 μM. For the antagonist confirmation screening, compounds were tested at 47.1 μM, 23.6 μM, 11.8 μM, 5.89 μM, 2.94 μM, 1.47 μM, 0.736 μM, and 0.368 μM.

[2] = Plasma protein binding (equilibrium dialysis); type: in vitro ADME; conditions: rat plasma
Text: (§1) Both compounds were then profiled for their plasma protein binding (PPB) and brain homogenate binding (BHB) to predict the unbound drug fraction in the plasma and brain respectively.

[3] = Brain homogenate binding (equilibrium dialysis); type: in vitro ADME; conditions: rat brain homogenate
Text: as §1

[4] = biological target: T2, 5-HT1B (Homo sapiens, UniProt P28222); assay: PDSP binding assay; conditions: 10 μM, quadruplicate, cloned target
T2 construct: NIMH Psychoactive Drug Screening Program (PDSP)

[5] = biological target: T3, 5-HT1E (Homo sapiens, UniProt P28566); assay: PDSP binding assay; conditions: 10 μM, quadruplicate, cloned target
T3 construct: NIMH Psychoactive Drug Screening Program (PDSP)

[6] = biological target: T4, 5-HT2A (Homo sapiens, UniProt P28223); assay: PDSP binding assay; conditions: 10 μM, quadruplicate, cloned target
T4 construct: NIMH Psychoactive Drug Screening Program (PDSP)

[7] = biological target: T5, 5-HT2B (Homo sapiens, UniProt P41595); assay: PDSP binding assay; conditions: 10 μM, quadruplicate, cloned target
T5 construct: NIMH Psychoactive Drug Screening Program (PDSP)

[8] = biological target: T6, 5-HT6 (Homo sapiens, UniProt P50406); assay: PDSP binding assay; conditions: 10 μM, quadruplicate, cloned target
T6 construct: NIMH Psychoactive Drug Screening Program (PDSP)

[9] = biological target: T7, D1 (Homo sapiens, UniProt P21728); assay: PDSP binding assay; conditions: 10 μM, quadruplicate, cloned target
T7 construct: NIMH Psychoactive Drug Screening Program (PDSP)

[10] = biological target: DOR (Homo sapiens, UniProt P41143); assay: PDSP binding assay; conditions: 10 μM, quadruplicate, cloned target
[11] = biological target: KOR (Homo sapiens, UniProt P41145); assay: PDSP binding assay; conditions: 10 μM, quadruplicate, cloned target
[12] = biological target: H2 (Homo sapiens, UniProt P25021); assay: PDSP binding assay; conditions: 10 μM, quadruplicate, cloned target
[13] = biological target: H4 (Homo sapiens, UniProt Q9H3N8); assay: PDSP binding assay; conditions: 10 μM, quadruplicate, cloned target
[14] = biological target: M4 (Homo sapiens, UniProt P08173); assay: PDSP binding assay; conditions: 10 μM, quadruplicate, cloned target
[15] = biological target: M5 (Homo sapiens, UniProt P08912); assay: PDSP binding assay; conditions: 10 μM, quadruplicate, cloned target
[16] = biological target: Beta3 (Homo sapiens, UniProt P13945); assay: PDSP binding assay; conditions: 10 μM, quadruplicate, cloned target
[17] = tested on: BZP Rat Brain Site; assay: PDSP binding assay; conditions: 10 μM, quadruplicate
[18] = tested on: Sigma 2; assay: PDSP binding assay; conditions: 10 μM, quadruplicate, cloned target
[19] = biological target: M1 (Homo sapiens, UniProt P11229); assay: PDSP binding assay; conditions: 10 μM, quadruplicate, cloned target
[20] = In vivo pharmacokinetic study, plasma and brain exposure; conditions: mouse, 10 mg/kg i.p.

Sequence of M5 (P08912 whole entry): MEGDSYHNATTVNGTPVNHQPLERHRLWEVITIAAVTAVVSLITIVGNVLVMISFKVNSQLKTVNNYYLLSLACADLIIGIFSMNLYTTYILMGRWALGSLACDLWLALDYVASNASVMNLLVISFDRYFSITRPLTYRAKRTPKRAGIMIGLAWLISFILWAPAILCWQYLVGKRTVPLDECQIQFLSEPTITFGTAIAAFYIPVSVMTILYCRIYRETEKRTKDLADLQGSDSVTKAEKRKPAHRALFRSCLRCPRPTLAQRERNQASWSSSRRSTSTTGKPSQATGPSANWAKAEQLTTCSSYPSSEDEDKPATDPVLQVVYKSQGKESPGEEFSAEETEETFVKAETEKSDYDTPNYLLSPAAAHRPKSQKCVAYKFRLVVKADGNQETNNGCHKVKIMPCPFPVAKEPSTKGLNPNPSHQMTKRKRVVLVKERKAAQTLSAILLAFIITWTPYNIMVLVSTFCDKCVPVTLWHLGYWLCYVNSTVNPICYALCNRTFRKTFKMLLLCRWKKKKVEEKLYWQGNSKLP
Sequence of Beta3 (P13945 whole entry): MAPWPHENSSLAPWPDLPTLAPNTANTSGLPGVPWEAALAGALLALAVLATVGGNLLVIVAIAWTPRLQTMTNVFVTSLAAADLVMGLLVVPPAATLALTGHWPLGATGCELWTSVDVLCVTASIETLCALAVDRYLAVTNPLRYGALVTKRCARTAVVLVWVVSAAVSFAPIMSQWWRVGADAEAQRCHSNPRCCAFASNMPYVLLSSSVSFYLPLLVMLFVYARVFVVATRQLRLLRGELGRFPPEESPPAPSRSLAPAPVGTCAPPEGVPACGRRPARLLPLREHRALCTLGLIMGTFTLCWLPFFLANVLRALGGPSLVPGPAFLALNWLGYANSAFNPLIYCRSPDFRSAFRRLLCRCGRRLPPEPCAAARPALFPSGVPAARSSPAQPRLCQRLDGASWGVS
Sequence of H2 (P25021 whole entry): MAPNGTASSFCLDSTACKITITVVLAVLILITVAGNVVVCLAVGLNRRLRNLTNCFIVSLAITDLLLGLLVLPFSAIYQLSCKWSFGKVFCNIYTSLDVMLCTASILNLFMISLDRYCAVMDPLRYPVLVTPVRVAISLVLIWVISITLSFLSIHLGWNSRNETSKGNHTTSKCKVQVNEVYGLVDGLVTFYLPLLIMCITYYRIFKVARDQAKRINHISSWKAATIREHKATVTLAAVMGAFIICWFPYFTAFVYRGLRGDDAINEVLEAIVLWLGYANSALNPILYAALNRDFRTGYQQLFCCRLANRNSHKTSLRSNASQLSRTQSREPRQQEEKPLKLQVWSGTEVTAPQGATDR
T3 sequence (P28566 whole entry, species assumed): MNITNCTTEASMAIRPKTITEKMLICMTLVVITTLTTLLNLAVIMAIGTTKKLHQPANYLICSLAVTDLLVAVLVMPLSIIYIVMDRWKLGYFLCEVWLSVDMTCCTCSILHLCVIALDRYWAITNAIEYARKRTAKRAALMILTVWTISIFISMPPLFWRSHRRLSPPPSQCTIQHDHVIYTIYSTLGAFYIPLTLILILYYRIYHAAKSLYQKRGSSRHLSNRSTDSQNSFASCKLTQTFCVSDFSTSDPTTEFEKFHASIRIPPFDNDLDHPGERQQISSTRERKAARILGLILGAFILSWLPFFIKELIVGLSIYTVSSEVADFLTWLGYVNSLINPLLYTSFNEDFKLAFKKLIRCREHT
T6 sequence (P50406 whole entry, species assumed): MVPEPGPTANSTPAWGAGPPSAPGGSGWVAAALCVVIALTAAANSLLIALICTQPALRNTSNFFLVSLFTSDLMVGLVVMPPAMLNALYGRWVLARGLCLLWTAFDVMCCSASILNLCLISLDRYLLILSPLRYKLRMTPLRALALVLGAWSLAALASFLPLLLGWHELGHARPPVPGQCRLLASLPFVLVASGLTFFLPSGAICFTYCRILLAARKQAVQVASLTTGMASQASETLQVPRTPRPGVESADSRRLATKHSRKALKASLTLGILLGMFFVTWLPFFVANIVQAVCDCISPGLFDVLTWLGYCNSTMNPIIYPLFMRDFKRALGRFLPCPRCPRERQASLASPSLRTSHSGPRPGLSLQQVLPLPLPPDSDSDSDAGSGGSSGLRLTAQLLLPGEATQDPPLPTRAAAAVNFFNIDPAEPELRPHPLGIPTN
Sequence of M4 (P08173 whole entry): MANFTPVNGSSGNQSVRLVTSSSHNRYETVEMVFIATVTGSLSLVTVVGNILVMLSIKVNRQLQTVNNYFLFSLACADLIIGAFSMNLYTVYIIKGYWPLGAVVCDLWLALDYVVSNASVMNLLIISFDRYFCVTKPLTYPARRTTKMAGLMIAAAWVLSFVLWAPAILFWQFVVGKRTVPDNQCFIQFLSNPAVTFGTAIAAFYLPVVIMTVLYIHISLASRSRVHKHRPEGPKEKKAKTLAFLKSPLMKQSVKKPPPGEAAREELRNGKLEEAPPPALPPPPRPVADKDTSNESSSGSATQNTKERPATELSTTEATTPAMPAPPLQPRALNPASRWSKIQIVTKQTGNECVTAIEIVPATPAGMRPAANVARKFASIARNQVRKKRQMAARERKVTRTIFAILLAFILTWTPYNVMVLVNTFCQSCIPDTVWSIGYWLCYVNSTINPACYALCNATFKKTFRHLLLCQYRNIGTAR
Sequence of H4 (Q9H3N8 whole entry): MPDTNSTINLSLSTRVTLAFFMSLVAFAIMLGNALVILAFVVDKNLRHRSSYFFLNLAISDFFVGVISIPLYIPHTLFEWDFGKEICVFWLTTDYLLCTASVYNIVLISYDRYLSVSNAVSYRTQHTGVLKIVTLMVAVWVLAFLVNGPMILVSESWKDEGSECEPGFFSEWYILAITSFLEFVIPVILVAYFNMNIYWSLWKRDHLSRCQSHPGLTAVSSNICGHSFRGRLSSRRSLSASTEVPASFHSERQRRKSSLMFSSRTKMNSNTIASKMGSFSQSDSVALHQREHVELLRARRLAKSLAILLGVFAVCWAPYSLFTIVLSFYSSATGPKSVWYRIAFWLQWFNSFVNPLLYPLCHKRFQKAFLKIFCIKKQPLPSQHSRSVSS
T4 sequence (P28223 whole entry, species assumed): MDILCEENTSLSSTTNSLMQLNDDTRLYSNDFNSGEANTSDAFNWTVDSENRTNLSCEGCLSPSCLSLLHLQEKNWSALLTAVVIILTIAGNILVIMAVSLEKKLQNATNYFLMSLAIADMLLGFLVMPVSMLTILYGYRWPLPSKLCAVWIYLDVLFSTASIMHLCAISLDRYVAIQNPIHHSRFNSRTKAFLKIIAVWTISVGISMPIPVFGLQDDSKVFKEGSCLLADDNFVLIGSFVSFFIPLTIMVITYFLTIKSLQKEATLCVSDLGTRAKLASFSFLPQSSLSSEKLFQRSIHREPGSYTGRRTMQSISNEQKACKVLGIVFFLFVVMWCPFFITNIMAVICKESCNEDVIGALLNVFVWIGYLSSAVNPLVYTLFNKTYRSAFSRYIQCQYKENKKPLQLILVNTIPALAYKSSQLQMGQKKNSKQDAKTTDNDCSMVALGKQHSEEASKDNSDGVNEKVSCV
T5 sequence (P41595 whole entry, species assumed): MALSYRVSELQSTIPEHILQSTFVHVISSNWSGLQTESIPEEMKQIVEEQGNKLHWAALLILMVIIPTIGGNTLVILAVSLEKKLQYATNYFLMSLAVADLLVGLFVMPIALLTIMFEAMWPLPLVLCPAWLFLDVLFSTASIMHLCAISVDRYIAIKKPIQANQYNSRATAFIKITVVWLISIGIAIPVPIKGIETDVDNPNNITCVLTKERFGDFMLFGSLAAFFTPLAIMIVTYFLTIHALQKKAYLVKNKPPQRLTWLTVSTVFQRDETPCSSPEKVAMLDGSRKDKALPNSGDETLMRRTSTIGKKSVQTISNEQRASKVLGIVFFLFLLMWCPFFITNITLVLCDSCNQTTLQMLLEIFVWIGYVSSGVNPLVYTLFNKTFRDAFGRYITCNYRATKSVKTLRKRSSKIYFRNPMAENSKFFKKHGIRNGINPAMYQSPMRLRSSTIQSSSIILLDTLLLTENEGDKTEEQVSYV
Sequence of DOR (P41143 whole entry): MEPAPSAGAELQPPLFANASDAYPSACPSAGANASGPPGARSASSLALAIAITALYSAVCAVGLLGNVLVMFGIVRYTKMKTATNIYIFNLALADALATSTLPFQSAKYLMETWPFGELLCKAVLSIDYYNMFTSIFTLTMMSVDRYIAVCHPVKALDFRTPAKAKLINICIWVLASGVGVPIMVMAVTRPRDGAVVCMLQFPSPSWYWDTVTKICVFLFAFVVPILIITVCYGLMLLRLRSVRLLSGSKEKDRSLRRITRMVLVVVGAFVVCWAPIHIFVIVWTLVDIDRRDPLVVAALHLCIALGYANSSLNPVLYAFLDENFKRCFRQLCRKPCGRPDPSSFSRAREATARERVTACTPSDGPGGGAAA
Sequence of M1 (P11229 whole entry): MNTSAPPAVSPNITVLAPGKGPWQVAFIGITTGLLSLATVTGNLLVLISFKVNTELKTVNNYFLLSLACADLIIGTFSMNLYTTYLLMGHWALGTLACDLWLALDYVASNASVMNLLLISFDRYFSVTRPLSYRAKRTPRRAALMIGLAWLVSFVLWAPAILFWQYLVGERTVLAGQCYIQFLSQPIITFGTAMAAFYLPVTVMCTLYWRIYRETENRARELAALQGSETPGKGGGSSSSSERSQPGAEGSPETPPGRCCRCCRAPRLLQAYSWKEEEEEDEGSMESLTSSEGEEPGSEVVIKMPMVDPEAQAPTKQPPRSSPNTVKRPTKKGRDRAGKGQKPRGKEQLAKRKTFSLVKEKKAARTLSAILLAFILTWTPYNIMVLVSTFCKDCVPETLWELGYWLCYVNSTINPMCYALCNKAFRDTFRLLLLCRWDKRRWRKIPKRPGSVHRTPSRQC

| SMILES | CRF maximal response with increasing concentrations of compound [1] | Mechanism of antagonism relative to CRF (Schild analysis) [1] | Antagonism of the CRFBP-CRF2 response [1] | Plasma protein binding, free [2] | Brain homogenate binding, free [3] | Activity at 5-HT1B (binding assay) [4] | Activity at 5-HT1E (binding assay) [5] | Activity at 5-HT2A (binding assay) [6] | Activity at 5-HT2B (binding assay) [7] | Activity at 5-HT6 (binding assay) [8] | Activity at D1 (binding assay) [9] | Activity at DOR (binding assay) [10] | Activity at KOR (binding assay) [11] | Activity at H2 (binding assay) [12] | Activity at H4 (binding assay) [13] | Activity at M4 (binding assay) [14] | Activity at M5 (binding assay) [15] | Activity at Beta3 (binding assay) [16] | Activity at BZP Rat Brain Site (binding assay) [17] | Activity at Sigma 2 (binding assay) [18] | further results |
| --- | --- | --- | --- | --- | --- | --- | --- | --- | --- | --- | --- | --- | --- | --- | --- | --- | --- | --- | --- | --- | --- |
| Brc1ccccc1-c1nnc(CSc2nnnn2-c2ccccc2)o1 [MLS-0046818] | decreased | noncompetitively antagonize CRF responses | only inhibit the CRFBP-CRF2 response | 4.6 % free | 2.3 % free | 5% | 16% | 5% | 67% | 35% | −1% | −7% | 85% | 22% | 8% | −12% | −6% | 27% | 35% | −7% | Mechanism of antagonism relative to CRF (Schild analysis) ([1]; listed as MLS-0046181): noncompetitive interaction; Activity at M1 (binding assay) [19]: −15%; Brain exposure ([20]; 4 hour post-dose): 56 nM; Brain exposure relative to IC50 ([20]; 4 hour post-dose): 0.10 ×IC50; Brain exposure relative to IC50 ([20]; 6 hour post-dose): 0.14 ×IC50; Brain exposure ([20]; 24 hour post-dose): 40 nM; Brain exposure relative to IC50 ([20]; 24 hour post-dose): 0.07 ×IC50; Plasma Cmax exposure relative to in vitro IC50 [20]: 4.8 × |
| CC(C)Cn1c(SCC(=O)N2CCc3ccccc3C2)nc2cc(Cl)ccc2c1=O [MLS-0219419] | decreased | noncompetitive interaction; also recorded: noncompetitively antagonize CRF responses | only inhibit the CRFBP-CRF2 response | 0.1 % free | 0.0 % free | 18% | 11% | −1% | 2% | 2% | 1% | −8% | −10% | 20% | −15% | −6% | −2% | 29% | 25% | 9% | Activity at M1 (binding assay) [19]: −15%; Brain exposure ([20]; 4 hour post-dose): 245 nM; Brain exposure relative to IC50 ([20]; 4 hour post-dose): 0.52 ×IC50; Brain exposure ([20]; 24 hour post-dose): 78 nM; Brain exposure relative to IC50 ([20]; 24 hour post-dose): 0.17 ×IC50; Plasma Cmax exposure relative to in vitro IC50 [20]: 1.7 × |
